Data published in patent publication US4914191A, “Anthracycline derivatives having cytostatic activity” (Behringwerke Aktiengesellschaft, priority 1987, dated 1990).
In brackets after ≈: the same amount, converted by molar mass. Like-named read-outs stand apart in the source and are kept apart here.

Key:
[1] = tested on: L1210 mouse leukemia cells; experiment: formation of colonies of L1210 leukemia cells in soft agar; assay type: cell-based; conditions: Mus musculus
Protocol: The cytostatic activity of the compounds according to the invention was tested using L1210 mouse leukemia cells. This made use of the formation of colonies of L1210 leukemia cells in agar plates. This method is used to detect the effect of the test substances on the growth behavior of the cells over 1 hour or over several generations. With a cell cycle lasting 10-12 hours, this means that about 14 consecutive generations are observed in a test lasting 7 days. In this test, the substances having cytostatic activity according to the invention bring about a reduction in the number of colonies to be observed by comparison with an untreated control sample.
500 leukemia cells per plate were incubated with various concentrations of the test substance at 37° C. for 1 hour. These cells were then washed twice with McCoy5A medium and finally, after addition of 0.3% agar, poured into Petri dishes. Controls were incubated only with fresh medium. In some cases, in place of the incubation for one hour, various concentrations of test substances were mixed with the upper agar layer in order in this way to achieve continuous exposure of the cells throughout the incubation time. After the agar had solidified, the plates were incubated at 37° C. in an incubator for 7 days (5% by vol. CO2, 95% relative humidity). The number of colonies with a diameter of more than 60 μm which had formed was then counted. The results have been given as the number of colonies in treated agar plates as a percentage of the untreated control. The IC50 was determined, as a measure of the activity of the substance, from the dose-effect plot obtained in this way.

[2] = approximative toxicity, intraperitoneal (LD50); conditions: in vivo, ip; one intraperitoneal administration; read-out: Approximative toxicity LD50, 1xip
From the text: *3xip,q3d: three intraperitoneal administrations with an interval of thre
1xip: one intraperitoneal administration

L1210 leukemia cells = experiment: cross-resistance in vitro, MTT assay on sensitive and adriamycin (doxorubicin)-resistant L1210 leukemia cells; assay type: cell-based, mouse; conditions: 3d incubation
Protocol: L1210, A 549 or HT 29 in the exponential phase of growth are incubated in a cell density of 5×10^3 cells/ml in RPMI 1640 in a 96-well microtiter plate for 72 hours with various concentrations of the test substance at 37° C., 5% CO2 and 95% relative humidity. Control experiments contain merely growth medium in place of the test substance. Each test substance and the control are determined in quadruplicate. After incubation for 65 hours, 50 μl of MTT solution (2.5 mg/ml in phosphate-buffered saline) are added. In the presence of live cells, MTT is reduced to a dark-red insoluble formazan dyestuff. This reaction is complete after 7 hours (L1210 cells) or after 24 hours (A 549, HT 29 cells), and the supernatant medium is carefully removed by aspiration. The insoluble dyestuff is dissolved by addition of 100 μl of DMSO, and the extinction of the resulting solution at a wavelength of 492 nm is then measured for each well in a Flow 340 CC multiscan photometer.
The ratio of the extinctions of treated and untreated cells yields a dose-effect plot from which the concentration which just kills 50% of the cells (IC50) can be read off. The coefficient of variation for repeat tests is less than 15%.
The cross-resistance between the particular test compound and doxorubicin is determined using the MTT assay (for method, see above) on sensitive and resistant L1210 leukemia cells.
The resistant cell line was established by incubation of a sensitive subline with stepwise increasing concentrations of the reference compound.
The IC50 of the test compound on the resistant subline relative to the IC50 of the sensitive subline yields the degree of resistance both for the test compound (DR(T)) and for the reference compound (DR(R)) in accordance with the formula [formula]
In addition, the degree of cross-resistance (DCR) for the test compound is calculated in accordance with the formula [formula]
In the case where the loss of activity of the test compound on the resistant line related to the sensitive line is greater than that of the reference compound, a degree of cross-resistance of more than 100% is possible.

CC[C@@]1(O)C[C@H](O[C@H]2C[C@H](N(C)C)[C@H](OC(C)=O)[C@H](C)O2)c2c(O)c3c(c(O)c2[C@H]1O)C(=O)c1cccc(O)c1C3=O [Compound 21, 7-O-(4'-O-Acetyl-α-L-rhodosaminyl)-β-rhodomycinone]
IC50 ([1]; 168 h, continuous exposure, 7 days, L1210 colony formation, read-out: Long-term incubation IC50): 0.08 µg/mL (≈ 0.137 µM)
IC50 ([1]; 1 h incubation, then 7 days colony formation, L1210, read-out: 1 h Incubation IC50): 0.7 µg/mL (≈ 1.2 µM)
LD50 [2]: 1 to 10 mg/kg
Degree of cross-resistance to adriamycin (L1210 leukemia cells): 2.4%
Degree of resistance of the cell (L1210 leukemia cells; IC50 resistant subline relative to IC50 sensitive line): 2.2
